Four compounds from patent US20250051361A1, “5,6,7,8-TETRAHYDRO-2,6-NAPHTHYRIDINE DERIVATIVES AS CANCER THERAPEUTICS” (VRise Therapeutics, Inc., priority 2021, published 2025) can be followed below.

Molecules are shown by their SMILES. Structures can show the parent of a compound that is named as a salt.

Assay [1] deals with T1, human KRAS G12D protein (Homo sapiens, UniProt P01116, G12D).
T1 construct: A human KRAS G12D protein (corresponding to amino acid 2-169)
The experiment in a line: HTRF-based nucleotide exchange assay detecting GTP binding to K-Ras. It is filed as biochemical. To be noted: human KRAS G12D (amino acid 2-169), SOS1 mediated exchange. On the procedure:
Test 3: Nucleotide Exchange Assay HTRF-based nucleotide exchange assay detecting GTP binding to K-Ras A human KRAS G12D protein (corresponding to amino acid 2-169) was mixed with a a-GST Tb antibody (1.5× solution) and 10 uL of the solution was added to the reaction wells). Compounds (each 10 concentrations or any other concentration of choice at 3-fold or fold of choice for serial dilutions with a starting concentration of […] or or 100 μM or 50 uM) were then delivered to the reaction wells using acoustic dispenser (Echo, Labcyte) and incubated with the Kras/aGST-Tb antibody for 1-hour at room temperature. […] HTRF based SOS1 mediated exchange of GDP to GTP was measured on a microplate reader […] (BMG Labtech) at an excitation wavelength of 337 nm and emission wavelengths of 665 and 620 nm. No-SOS1 reaction or highest control compound concentration was used as blank and % inhibition was calculated and/or IC50 was determined using Sigmoidal dose response (variable slope) equation.
For orientation: Time-resolved FRET reads energy transfer from a long-lived donor to a nearby acceptor.

Assay [2] relates to CT-26. The experiment in a line: In vitro cell proliferation assay in KRASG12 cell lines (CT-26). As to conditions: Mus musculus, CT26; Cell Line CT-26; Cell Titer-Glo, 3 day (2D) or 7 day (3D). It counts as cell-based. On the procedure: Test 2: In Vitro Cell Proliferation Assay in KRASG12 Cell lines Growth inhibition assays was carried out using 10% FBS supplemented media. Cells were seeded at a desired concentration of 1000-2,000 cells/well in a well plate with desired number of wells. Test compounds at a desired concentration range were added after 24 hours. Growth was assessed using the Cell Titer-Glo (CTG, Cell Signaling) for measuring reduction at 0 h (prior to the addition of the test compound) and 3 day (2D) or 7 day (3D) after the addition of test compound. Absorbance read on a BIO-RAD iMark Microplate or any equivalent microplate reader at a predetermined a wavelength for e.g. 450 nm. Data was be analysed and percent inhibition and/or IC50 for each test compound is calculated accordingly.
Background: In ATP-based viability assays light output follows the ATP content of the culture.

Assay [3] has as its system AGS cells. Nature of the assay: In vitro cell proliferation assay in AGS cell line. It is filed as cell-based. As to conditions: Homo sapiens; for inhibition at 3 µM: TC1: Test Concentration of 3 uM; for inhibition at 10 µM: TC2: Test Concentration of 10 uM. On the procedure:
(§1) Test 1: In Vitro Cell Proliferation Assay in HPAC and AGS Cell Lines
(§2) Growth inhibition assays was carried out using 10% FBS supplemented media. Cells are to be seeded at a concentration of 2000-3,000 cells/well in a 96-well plate. Test compounds at a concentration range from 0.1 to 30 uM will be added after 24 hours. Growth will be assessed using the MTT or CCK-8 kit for measuring reduction at 0 h (prior to the addition of the test compound) and 72 to 96 hours after the addition of test compound. Absorbance read on a BIO-RAD iMark Microplate or any equivalent micloplate reader at a wavelength of 450 nm to 600 nm. Data will be analyzed and percent inhibition due to the test compound compared to the control is calculated accordingly.

Assay [4] deals with HPAC cells. Nature of the assay: In vitro cell proliferation assay in HPAC cell line. It counts as cell-based. To be noted: Homo sapiens; for inhibition at 3 µM: TC1: Test Concentration of 3 uM; for inhibition at 10 µM: TC2: Test Concentration of 10 uM. On the procedure:
as §1, §2

T1 sequence (P01116 2-169 isoform P01116-2 G12D): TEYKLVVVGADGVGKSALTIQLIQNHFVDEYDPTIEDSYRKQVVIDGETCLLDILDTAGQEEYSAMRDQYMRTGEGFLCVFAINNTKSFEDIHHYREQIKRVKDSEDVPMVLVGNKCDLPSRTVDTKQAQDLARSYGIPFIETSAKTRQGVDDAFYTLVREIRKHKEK

What is called IC50 is the midpoint of a concentration-inhibition curve. A higher IC50 goes with weaker potency. As usually defined, the inhibition is the change of the read-out against control, counted positive when it falls. Take `N#Cc1c(OCC23CCCN2C[C@H](F)C3)nc(N2CC3CCC(C2)N3)c2c1CN(c1cc(O)cc3ccccc13)CC2` (stereo partly drawn) [Ex 25, 1-(3,8-diazabicyclo[3.2.1]octan-3-yl)-3-(((2R)-2-fluorotetrahydro-1H-pyrrolizin-7a(5H)-yl)methoxy)-6-(3-hydroxynaphthalen-1-yl)-5,6,7,8-tetrahydro-2,6-naphthyridine-4-carbonitrile Hydrochloride]: the values for the IC50 in assay [1] and in assay [2] were < 0.025 µM and 5 to 10 µM, respectively. In addition, the inhibition at 3 µM in assay [3] lay in the range of 75 to 100%; in assay [4] it was 25 to 50%. The inhibition at 10 µM in assay [3] and in assay [4] was 75 to 100% each time.
Turning to `N#Cc1c(OCC23CCCN2C[C@H](F)C3)nc(N2CC3CCC(C2)N3)c2c1CN(c1cccc3cccc(Cl)c13)CC2` (stereo partly drawn) [Ex 17, 1-(3,8-diazabicyclo[3.2.1]octan-3-yl)-6-(8-chloronaphthalen-1-yl)-3-(((2R)-2-fluorotetrahydro-1H-pyrrolizin-7a(5H)-yl)methoxy)-5,6,7,8-tetrahydro-2,6-naphthyridine-4-carbonitrile Hydrochloride], the IC50 was in the range of 0.025 to 0.05 µM in assay [1] and 2.5 to 5 µM in assay [2]. Also, the inhibition at 3 µM in assay [3] and in assay [4] was 25 to 50% throughout. For the same compound, the inhibition at 10 µM in assay [3] and in assay [4] was 75 to 100% in each case.
As to `CN1CCC[C@H]1COc1nc(N2CC3CCC(C2)N3)c2c(c1C#N)CN(c1cccc3cccc(Cl)c13)CC2` [Ex 16, 1-(3,8-diazabicyclo[3.2.1]octan-3-yl)-6-(8-chloronaphthalen-1-yl)-3-(((S)-1-methylpyrrolidin-2-yl)methoxy)-5,6,7,8-tetrahydro-2,6-naphthyridine-4-carbonitrile Hydrochloride], the IC50 was 0.2 to 1 µM in assay [1] and < 2.5 µM in assay [2]. Further, the inhibition at 3 µM in assay [3] and in assay [4] was 50 to 75% each time. For the same compound, the inhibition at 10 µM lay in the range of 50 to 75% in assay [3] and 75 to 100% in assay [4].
`N#Cc1c(OCC23CCCN2C[C@H](F)C3)nc(N2CC3CCC(C2)N3)c2c1CN(Cc1ccccc1)CC2` (stereo partly drawn) [Ex 19, 6-benzyl-1-(3,8-diazabicyclo[3.2.1]octan-3-yl)-3-(((2R)-2-fluorotetrahydro-1H-pyrrolizin-7a(5H)-yl)methoxy)-5,6,7,8-tetrahydro-2,6-naphthyridine-4-carbonitrile Hydrochloride]: the 50% inhibitory concentration (IC50) in assay [1] was > 1 µM. Besides, in assay [3], the inhibition at 3 µM lay in the range of 25 to 50% and the inhibition at 10 µM lay within 50 to 75%. Besides, in assay [4], the inhibition at 3 µM is ≤ 25% and the inhibition at 10 µM is 75 to 100%.
